How the values were obtained:
[1] = test system: SW48 (Colorectal Carcinoma); assay: combination Emax (second highest fraction inhibited in the dose matrix, 72 h); higher = more inhibition; extreme values may be limits of the assay
Summary of the method: (§1)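 Cell lines grown in DMEM/F12 or RPMI with 10% FBS were plated in 1536-well plates and held 24 hours at 37°C, 5% CO2 before 72 hours of exposure to two-drug dose matrices, with DMSO typically at 0.2%. CellTiter-Glo 2.0 luminescence gave viability, which was converted to inhibition. Vehicle wells were set to 0 and blank wells to 1. Combination Emax is the second-highest inhibition in the matrix, and Bliss excess is the observed combination effect minus the expected EA + EB − EA·EB, where EA and EB are the single-agent effects.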

[2] = test system: HOP-92 (Non-Small Cell Lung Carcinoma); assay: as above
Summary of the method: as §1

CS1 (Chondrosarcoma) = assay: as above
Summary of the method: as §1

Saos-2 (Osteosarcoma) [3] = assay: as above
Summary of the method: as §1

EW-22 (Ewing's Sarcoma) [4] = assay: as above
Summary of the method: as §1

[5] = test system: SK-LMS-1 (Other Solid Carcinomas); assay: Bliss excess, mean over the matrix (fraction); higher = more synergy
Summary of the method: as §1

[6] = test system: BICR78 (Oral Cavity Carcinoma); assay: as above
Summary of the method: as §1

D-392MG (Glioblastoma) = assay: as above
Summary of the method: as §1

[7] = test system: YT (Other Blood Carcinomas); assay: as above
Summary of the method: as §1

[8] = test system: P31-FUJ (Acute Myeloid Leukemia); assay: as above
Summary of the method: as §1

Saos-2 (Osteosarcoma) [9] = assay: as above
Summary of the method: as §1

[10] = test system: TYK-nu (Ovarian Carcinoma); assay: as above
Summary of the method: as §1

[11] = test system: SW948 (Colorectal Carcinoma); assay: as above
Summary of the method: as §1

[12] = test system: PA-TU-8902 (Pancreatic Carcinoma); assay: as above
Summary of the method: as §1

EW-22 (Ewing's Sarcoma) [13] = assay: as above
Summary of the method: as §1

[14] = test system: SK-UT-1 (Other Solid Carcinomas); assay: as above
Summary of the method: as §1

[15] = test system: 647-V (Bladder Carcinoma); assay: combination Emax (second highest fraction inhibited in the dose matrix, 72 h); higher = more inhibition; extreme values may be limits of the assay
Summary of the method: as §1

[16] = test system: HCC-827 (Lung Adenocarcinoma); assay: Bliss excess, mean over the matrix (fraction); higher = more synergy
Summary of the method: as §1

[17] = test system: EFM-192A (Breast Carcinoma); assay: as above
Summary of the method: as §1

[18] = test system: RCC10RGB (Kidney Carcinoma); assay: as above
Summary of the method: as §1
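Wherever Bliss excess, mean over the matrix is given: after 72 h of two-drug dosing.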

Structure (SMILES) | combination Emax [1] | combination Emax [2] | combination Emax (CS1 (Chondrosarcoma)) | combination Emax (Saos-2 (Osteosarcoma) [3]) | combination Emax (EW-22 (Ewing's Sarcoma) [4]) | Bliss excess [5] | Bliss excess [6] | Bliss excess (D-392MG (Glioblastoma)) | Bliss excess [7] | Bliss excess [8] | Bliss excess (Saos-2 (Osteosarcoma) [9]) | Bliss excess [10] | Bliss excess [11] | Bliss excess [12] | Bliss excess (EW-22 (Ewing's Sarcoma) [13]) | Bliss excess [14] | combination Emax [15] | Bliss excess [16] | Bliss excess [17] | Bliss excess [18]
CS(=O)(=O)CCNCc1ccc(-c2ccc3ncnc(Nc4ccc(OCc5cccc(F)c5)c(Cl)c4)c3c2)o1 [Lapatinib] + NC1(c2ccc(-c3nc4ccn5c(=O)[nH]nc5c4cc3-c3ccccc3)cc2)CCC1 [MK-2206] (first compound max 10 µM, 7x7, partner max 10 µM) | 0.847 | 0.685 | 0.765 | 0.426 | 0.868 | 0.0031 | 0.0068 | -0.0411 | -0.0321 | -0.062 | -0.0026 | -0.0165 | 0.049 | -0.0237 | 0.0308 | 0.0057 | – | – | – | –
CN(C)CCCOc1ccc(-c2ccc3ncc4c(c3c2)n(C2CCOCC2)c(=O)n4C)cn1 [AZD0156] + C=CCn1c(=O)c2cnc(Nc3ccc(N4CCN(C)CC4)cc3)nc2n1-c1cccc(C(C)(C)O)n1 [AZD1775] (first compound max 1 µM, partner max 1 µM) | 0.372 | 0.631 | 0.509 | 0.494 | 0.616 | -0.0203 | -0.0107 | -0.0461 | -0.0273 | 0.0046 | -0.0379 | -0.0836 | – | -0.0339 | 0.006 | -0.0346 | 0.446 | 0.0075 | -0.0567 | -0.0775
CN(C)CCCOc1ccc(-c2ccc3ncc4c(c3c2)n(C2CCOCC2)c(=O)n4C)cn1 [AZD0156] + C[C@@H]1COCCN1C2=NC(=NC(=C2)C3(CC3)[S@](=N)(=O)C)C4=C5C=CNC5=NC=C4 [AZD6738] (first compound max 1 µM, 7x7, partner max 10 µM) | 0.779 | 0.665 | 0.674 | 0.394 | 0.905 | 0.0122 | 0.0119 | -0.0549 | 0.0104 | -0.0462 | -0.0133 | -0.0143 | – | -0.0007 | 0.0143 | 0.0126 | 0.491 | -0.003 | 0.0073 | -0.0129
CCN(CCO)CCCOc1ccc2c(Nc3cc(CC(=O)Nc4cccc(F)c4)[nH]n3)ncnc2c1 [AZD2811] + C[C@@H]1COCCN1C2=NC(=NC(=C2)C3(CC3)[S@](=N)(=O)C)C4=C5C=CNC5=NC=C4 [AZD6738] (first compound max 1 µM, 7x7, partner max 10 µM) | 0.975 | 0.626 | 0.632 | 0.588 | 0.894 | -0.0249 | -0.0215 | -0.0537 | -0.0204 | -0.0332 | -0.0218 | -0.0244 | – | -0.0532 | -0.0503 | 0.0317 | 0.524 | -0.0856 | -0.0201 | -0.0472
C=CCn1c(=O)c2cnc(Nc3ccc(N4CCN(C)CC4)cc3)nc2n1-c1cccc(C(C)(C)O)n1 [AZD1775] + C[C@@H]1COCCN1C2=NC(=NC(=C2)C3(CC3)[S@](=N)(=O)C)C4=C5C=CNC5=NC=C4 [AZD6738] (first compound max 1 µM, partner max 10 µM) | 0.886 | 0.643 | 0.766 | 0.823 | 0.902 | 0.0039 | – | -0.04 | 0.0305 | -0.008 | 0.0071 | -0.0711 | – | 0.0315 | -0.0218 | 0.0498 | 0.769 | -0.0286 | -0.0053 | -0.137
Cc1cc2ncnn2cc1Nc1ncc2c(n1)n(C1CCOCC1)c(=O)n2C [AZD7648] + O=C(c1cc(Cc2n[nH]c(=O)c3ccccc23)ccc1F)N1CCN(C(=O)C2CC2)CC1 [Olaparib] (first compound max 10 µM, 7x7, partner max 10 µM) | 0.246 | 0.292 | 0.221 | 0.14 | 0.918 | -0.0295 | -0.0056 | -0.0456 | -0.0004 | -0.0511 | -0.0322 | -0.0819 | – | -0.0237 | -0.0664 | -0.0331 | 0.219 | -0.028 | -0.0533 | -0.0619
C[C@@H]1COCCN1c1cc(C2([S@](C)(=N)=O)CC2)nc(-c2ccnc3[nH]ccc23)n1 [AZD6738] + O=C(c1cc(Cc2n[nH]c(=O)c3ccccc23)ccc1F)N1CCN(C(=O)C2CC2)CC1 [Olaparib] (first compound max 10 µM, 7x7, partner max 10 µM) | 0.72 | 0.667 | 0.67 | 0.466 | 0.942 | 0.0027 | -0.0431 | -0.0067 | -0.0376 | -0.0848 | 0.0118 | -0.0674 | – | -0.0251 | 0.02 | 0.0408 | 0.61 | -0.0086 | 0.0387 | 0.0483
CCN(CCO)CCCOc1ccc2c(Nc3cc(CC(=O)Nc4cccc(F)c4)[nH]n3)ncnc2c1 [AZD2811] + C=CCn1c(=O)c2cnc(Nc3ccc(N4CCN(C)CC4)cc3)nc2n1-c1cccc(C(C)(C)O)n1 [AZD1775] (first compound max 1 µM, partner max 1 µM) | 0.964 | 0.646 | 0.45 | 0.704 | 0.678 | 0.0502 | 0.0338 | -0.0945 | 0.0367 | -0.0615 | 0.029 | -0.0586 | – | -0.006 | 0.0527 | 0.108 | 0.491 | 0.0272 | -0.0883 | -0.0716
CN(CCO)CC[C@H](CSc1ccccc1)Nc1ccc(S(=O)(=O)NC(=O)c2ccc(N3CCC([C@@H](O)c4ccccc4-c4ccc(Cl)cc4)CC3)cc2)cc1S(=O)(=O)C(F)(F)F [AZD4320] + CCN(CCO)CCCOc1ccc2c(Nc3cc(CC(=O)Nc4cccc(F)c4)[nH]n3)ncnc2c1 [AZD2811] (first compound max 1 µM, 7x7, partner max 1 µM) | 1 | 0.968 | 0.683 | 0.77 | 1 | 0.0619 | -0.0008 | 0.114 | -0.0344 | -0.0531 | 0.0831 | -0.0086 | -0.0196 | -0.0403 | 0.0467 | 0.0705 | 0.708 | -0.0596 | – | -0.0539
Cc1nc(-c2cn3c(n2)-c2ccc(-c4cnn(C(C)(C)C(N)=O)c4)cc2OCC3)n(C(C)C)n1 [Taselisib] + O=C(Nc1ccc2[nH]nc(-c3ccncc3)c2c1)[C@@H]1CCN(CC(=O)N2CCN(c3ccc(-c4ncccn4)cc3)CC2)C1 [SCH772984] (first compound max 10 µM, 7x7, partner max 5 µM) | 0.942 | – | 0.744 | 0.703 | 0.719 | 0.106 | -0.011 | 0.0272 | -0.0084 | 0.0477 | 0.0665 | – | 0.032 | – | 0.0152 | 0.104 | – | – | – | –
Cc1c2c(nn1C)CSCc1cc(n(C)n1)CSc1cc(c3ccccc3c1)OCCCc1c(C(=O)O)n(C)c3c-2c(Cl)ccc13 [AZD5991] + C[C@@H]1COCCN1C2=NC(=NC(=C2)C3(CC3)[S@](=N)(=O)C)C4=C5C=CNC5=NC=C4 [AZD6738] (first compound max 1 µM, 7x7, partner max 10 µM) | 0.739 | 0.723 | 0.591 | 0.6 | 0.921 | -0.0471 | -0.0327 | -0.0053 | -0.0498 | -0.0033 | -0.0135 | -0.0265 | 0.0387 | 0.0111 | 0.0236 | -0.0115 | 0.92 | – | 0.0335 | 0.0332
CN(CCO)CC[C@H](CSc1ccccc1)Nc1ccc(S(=O)(=O)NC(=O)c2ccc(N3CCC([C@@H](O)c4ccccc4-c4ccc(Cl)cc4)CC3)cc2)cc1S(=O)(=O)C(F)(F)F [AZD4320] + Cn1cnc2c(F)c(Nc3ccc(Br)cc3Cl)c(C(=O)NOCCO)cc21 [Selumetinib] (first compound max 1 µM, 7x7, partner max 3 µM) | 0.914 | 0.963 | 0.847 | 0.517 | 1 | 0.0293 | 0.0362 | -0.0474 | -0.0834 | 0.125 | -0.0016 | -0.0839 | -0.0332 | 0.0696 | 0.0011 | – | 0.971 | -0.0011 | – | -0.0159
Cc1c2c(nn1C)CSCc1cc(n(C)n1)CSc1cc(c3ccccc3c1)OCCCc1c(C(=O)O)n(C)c3c-2c(Cl)ccc13 [AZD5991] + Cc1cc2ncnn2cc1Nc1ncc2c(n1)n(C1CCOCC1)c(=O)n2C [AZD7648] (first compound max 1 µM, 7x7, partner max 10 µM) | 0.33 | 0.448 | 0.207 | 0.285 | 0.504 | -0.0392 | -0.0172 | -0.0664 | 0.0305 | 0.0055 | -0.014 | -0.0539 | -0.0328 | – | -0.041 | -0.0252 | 0.719 | -0.0476 | -0.0394 | 0.0033
CCc1c2c(nc3ccc(O)cc13)-c1cc3c(c(=O)n1C2)COC(=O)[C@]3(O)CC [SN-38] + O=C(c1cc(Cc2n[nH]c(=O)c3ccccc23)ccc1F)N1CCN(C(=O)C2CC2)CC1 [Olaparib] (first compound max 0.3 µM, 7x7, partner max 10 µM) | 0.799 | – | 0.846 | 0.96 | 0.947 | 0.0057 | 0.0587 | 0.0711 | -0.0409 | 0.0648 | 0.0247 | -0.0067 | 0.0993 | 0.086 | 0.0213 | 0.057 | – | 0.052 | – | –
CS(=O)(=O)CCNCc1ccc(-c2ccc3ncnc(Nc4ccc(OCc5cccc(F)c5)c(Cl)c4)c3c2)o1 [Lapatinib] + Cn1cnc2c(F)c(Nc3ccc(Br)cc3Cl)c(C(=O)NOCCO)cc21 [Selumetinib] (first compound max 10 µM, 7x7, partner max 10 µM) | 0.802 | – | 0.554 | 0.289 | 0.242 | 0.0047 | -0.0343 | -0.0383 | 0.0147 | -0.0118 | 0.0251 | – | -0.0086 | – | -0.0366 | 0.0151 | – | – | – | –
